In brackets after ≈: the same amount, converted by molar mass.
Assays:
Assay type in all cases: functional
Klebsiella pneumoniae = assay: Antimicrobial activity against Klebsiella pneumoniae 126/2007 by microdilution method
Staphylococcus aureus = assay: Antimicrobial activity against Staphylococcus aureus by microdilution method
Pseudomonas aeruginosa = assay: Antimicrobial activity against Pseudomonas aeruginosa 5541 by microdilution method
Escherichia coli = assay: Antimicrobial activity against Escherichia coli 637/2007 by microdilution method
Acinetobacter baumannii = assay: Antimicrobial activity against Acinetobacter baumannii 15896 by microdilution method
Enterococcus faecalis = assay: Antimicrobial activity against Enterococcus faecalis 13773 by microdilution method
Bacillus subtilis = assay: Antimicrobial activity against Bacillus subtilis 10.10.2006 by microdilution method

Q: With `CC(C)c1ccc(NC(=S)NC(=O)c2cnn(C)c2)cc1` as the compound, how does the MIC (Klebsiella pneumoniae) read?
A: > 1000 µg/mL

Q: And the MIC (Staphylococcus aureus)?
A: > 1000 µg/mL

Q: What about the MIC (Pseudomonas aeruginosa) of the same compound?
A: > 1000 µg/mL

Q: What about the MIC (Escherichia coli) of the same compound?
A: > 1000 µg/mL

Q: What about the MIC (Acinetobacter baumannii) of the same compound?
A: > 1000 µg/mL

Q: And the MIC (Enterococcus faecalis)?
A: > 1000 µg/mL

Q: And the MIC (Bacillus subtilis)?
A: > 1000 µg/mL

Q: Which results are given for `CCc1ccc(NC(=S)NC(=O)c2cnn(C)c2)cc1`?
A: MIC (Klebsiella pneumoniae): > 1000 µg/mL; MIC (Staphylococcus aureus): > 1000 µg/mL; MIC (Pseudomonas aeruginosa): > 1000 µg/mL; MIC (Escherichia coli): > 1000 µg/mL; MIC (Acinetobacter baumannii): > 1000 µg/mL; MIC (Enterococcus faecalis): > 1000 µg/mL; MIC (Bacillus subtilis): > 1000 µg/mL

Q: `Cn1cc(C(=O)NC(=S)Nc2ccc(C(C)(C)C)cc2)cn1` was tested. Which MIC (Klebsiella pneumoniae) did it give?
A: > 1000 µg/mL

Q: And the MIC (Staphylococcus aureus)?
A: > 1000 µg/mL

Q: And the MIC (Pseudomonas aeruginosa)?
A: > 1000 µg/mL

Q: And the MIC (Escherichia coli)?
A: > 1000 µg/mL

Q: What about the MIC (Acinetobacter baumannii) of the same compound?
A: > 1000 µg/mL

Q: And the MIC (Enterococcus faecalis)?
A: > 1000 µg/mL

Q: And the MIC (Bacillus subtilis)?
A: > 1000 µg/mL

Q: With `CCC(C)c1ccc(NC(=S)NC(=O)c2cnn(C)c2)cc1` (centres undefined) as the compound, how does the MIC (Klebsiella pneumoniae) read?
A: > 1000 µg/mL

Q: What about the MIC (Staphylococcus aureus) of the same compound?
A: > 1000 µg/mL

Q: And the MIC (Pseudomonas aeruginosa)?
A: > 1000 µg/mL

Q: And the MIC (Escherichia coli)?
A: > 1000 µg/mL

Q: What about the MIC (Acinetobacter baumannii) of the same compound?
A: > 1000 µg/mL

Q: And the MIC (Enterococcus faecalis)?
A: > 1000 µg/mL

Q: And the MIC (Bacillus subtilis)?
A: > 1000 µg/mL

Q: For `Cc1ccc(NC(=S)NC(=O)c2cnn(C)c2)cc1`, which MIC (Klebsiella pneumoniae) is on record?
A: > 1000 µg/mL

Q: What about the MIC (Staphylococcus aureus) of the same compound?
A: > 1000 µg/mL

Q: And the MIC (Pseudomonas aeruginosa)?
A: > 1000 µg/mL

Q: And the MIC (Escherichia coli)?
A: > 1000 µg/mL

Q: And the MIC (Acinetobacter baumannii)?
A: > 1000 µg/mL

Q: And the MIC (Enterococcus faecalis)?
A: > 1000 µg/mL

Q: And the MIC (Bacillus subtilis)?
A: > 1000 µg/mL

Q: For `CCC(C)c1ccccc1NC(=S)NC(=O)c1cnn(C)c1` (centres undefined), which MIC (Klebsiella pneumoniae) is on record?
A: > 1000 µg/mL

Q: And the MIC (Staphylococcus aureus)?
A: > 1000 µg/mL

Q: And the MIC (Pseudomonas aeruginosa)?
A: > 1000 µg/mL

Q: And the MIC (Escherichia coli)?
A: > 1000 µg/mL

Q: And the MIC (Acinetobacter baumannii)?
A: > 1000 µg/mL

Q: And the MIC (Enterococcus faecalis)?
A: > 1000 µg/mL

Q: What about the MIC (Bacillus subtilis) of the same compound?
A: > 1000 µg/mL

Q: For `Cn1cc(C(=O)NC(=S)Nc2ccccc2C(C)(C)C)cn1`, which MIC (Klebsiella pneumoniae) is on record?
A: > 1000 µg/mL

Q: What about the MIC (Staphylococcus aureus) of the same compound?
A: > 1000 µg/mL

Q: What about the MIC (Pseudomonas aeruginosa) of the same compound?
A: > 1000 µg/mL

Q: And the MIC (Escherichia coli)?
A: > 1000 µg/mL

Q: And the MIC (Acinetobacter baumannii)?
A: 1000 µg/mL (≈ 3.16 mM)

Q: What about the MIC (Enterococcus faecalis) of the same compound?
A: > 1000 µg/mL

Q: What about the MIC (Bacillus subtilis) of the same compound?
A: > 1000 µg/mL
